Measurements reported in publication PMC10703884, “Targeting the COMMD4–H2B protein complex in lung cancer” (British Journal of Cancer, 2023).
Entries after “also recorded” stand apart in the source; their conditions may differ. No end group written: not given here.

Tests used:
HBEC3-KT cells [1] = test: Clonogenic cell viability after IR, HBEC3-KT cells; assay type: cell-based, Human; conditions: varying IR doses, 7–10 days recovery, three independent experiments
Procedure: H1299, CRL5889 and H460 cells were cultured in Roswell Park Memorial Institute (RPMI) 1640 medium (Life Technologies) containing 10% foetal bovine serum (Thermo Fisher Scientific). Human bronchial epithelial cells (HBEC3-KT) were maintained in keratinocyte serum-free medium supplemented with epidermal growth factor and bovine pituitary extract (Life Technologies). The histology features and origin of all cell lines used have been previously described. Cell lines were authenticated using STR profiling. Cells were grown in a humidified incubator at 37 °C/5% CO2 atmosphere. All cell lines were verified to be free of mycoplasma contamination.
Irradiations were done at room temperature using a ^137Cs source (Gammacell 40 Exactor [MDS Nordion]; dose rate 1.1 Gy/min). Phalloidin-Atto 488 was purchased from Sigma-Aldrich and Hoechst 33342 was purchased from Thermo Fisher Scientific.
For siRNA transfections, cells were transfected with negative control or COMMD4 siRNA #2 (CCAUGUCCCUCUCAGCAGA[dT][dT] MISSION® siRNA, Sigma-Aldrich) using RNAiMax (Life Technologies) as previously described and samples were analysed 48 to 72 h post-transfection. […] Cells were mock-transfected, or transfected with FLAG-H2BWT/FLAG-H2BMUT1, or COMMD4-FLAG/A70K with FuGENE® HD (Promega) using the manufacturer’s protocol and analysed 24 h post-transfection. […]

HBEC3-KT cells [2] = test: Annexin V-FITC / propidium iodide apoptosis, HBEC3-KT cells; assay type: cell-based, Human; conditions: flow cytometry, three independent experiments
Procedure: (§1) For siRNA transfections, cells were transfected with negative control or COMMD4 siRNA #2 (CCAUGUCCCUCUCAGCAGA[dT][dT] MISSION® siRNA, Sigma-Aldrich) using RNAiMax (Life Technologies) as previously described and samples were analysed 48 to 72 h post-transfection. The H2B wild-type (FLAG-H2BWT) and mutant (FLAG-H2BMUT1) expression constructs were generated with the 10-amino acid peptide and the corresponding mutant cloned into the expression vector pCDNA3.1/(+)-N-DYK containing an N-terminal FLAG tag and a C-terminal nuclear localisation signal (AAKRVKLDS) (GenScript). […] Cells were mock-transfected, or transfected with FLAG-H2BWT/FLAG-H2BMUT1, or COMMD4-FLAG/A70K with FuGENE® HD (Promega) using the manufacturer’s protocol and analysed 24 h post-transfection.
(§2) The Annexin V-FITC apoptosis kit (United Bioresearch, ALX-850-020-K101, Enzo Life Sciences, Farmingdale, NY, USA) was used to measure viable and apoptotic cells, as previously described. […] CytExpert 2.0 software was used for data acquisition and analysed using the FlowJo v10 software.
(§3) Fig. 5 Induction of mitotic catastrophe and apoptosis in NSCLC cells. a Emerin and phalloidin staining respectively in three NSCLC and control HBEC3-KT cells. […] Asterix (*) denotes *P < 0.05 and ** P < 0.005 from 100 cells counted. […] The live cells were stained with Annexin V-FITC and propidium iodide and analysed by flow cytometer. […]

[3] = test system: H460, H1299 and CRL5889 NSCLC cells; test: Annexin V-FITC / propidium iodide apoptosis, NSCLC cells; assay type: cell-based; conditions: flow cytometry, three independent experiments
Procedure: as §1, §2, §3

NSCLC cells = test: Mitotic catastrophe (emerin and phalloidin staining), NSCLC cells; assay type: cell-based; conditions: 100 cells counted
Procedure: as §1
NSCLC cells were grown in 96-well plates as above and stained with anti-emerin antibody and phalloidin. Mitotic catastrophe was scored as previous. A minimum of 100 cells for each experimental condition were assessed to determine the percentage of aberrant nuclei.
As previously determined, in this study, we used two markers to determine mitotic catastrophe: emerin staining of the nuclear envelope and phalloidin staining of the F-actin cytoskeleton. […] We subsequently measured apoptosis by staining for Annexin V and propidium iodide via flow cytometry in FLAG-H2B WT, FLAG-H2BMUT1 and mock-transfected control and NSCLC cells (Fig. 5c, d). […]

## FLAG-H2BWT: 10-amino acid peptide cloned into expression vector containing an N-terminal FLAG tag and a C-terminal nuclear localisation signal ({FLAG}-SFVNDIFERIAAKRVKLDS)
HBEC3-KT cells [1]
  sensitivity to ionising radiation (clonogenic viability): neither hypersensitive to IR
HBEC3-KT cells [2]
  induction of apoptosis: no significant induction of apoptosis
[3]
  early and late apoptosis: significantly increased early and late apoptosis compared to FLAG-H2BMUT1 and mock-transfected cells
NSCLC cells
  aberrant nuclei / mitotic catastrophe: significantly more aberrant nuclei, indicative of mitotic catastrophe induction, relative to FLAG-H2BMUT1; also recorded: significantly more mitotic catastrophe than control cells
